Laboratory results: patent US20170210738A1, “GLUCOSE TRANSPORT INHIBITORS” (Bayer Pharma Aktiengesellschaft, priority 2014, published 2017)

The molecules below were run against T1, GLUT1 (Homo sapiens, UniProt P11166) (assay: Indirect measurement of GLUT activity by quantification of intracellular ATP levels: glucose induced ATP increase (GLUT1 inhibition)). Settings: DLD1 cells; 1 mM glucose, 1 uM Rotenone, 15 min; CellTiter-Glo ATP levels; IC50 values standardized to cytochalasin B IC50 values; read-out: IC50 regarding glucose induced ATP increase (GLUT1 inhibition).
T1 construct: endogenous in cells; host or cells: DLD1 or CHO-K1
T1 sequence (P11166 1-492): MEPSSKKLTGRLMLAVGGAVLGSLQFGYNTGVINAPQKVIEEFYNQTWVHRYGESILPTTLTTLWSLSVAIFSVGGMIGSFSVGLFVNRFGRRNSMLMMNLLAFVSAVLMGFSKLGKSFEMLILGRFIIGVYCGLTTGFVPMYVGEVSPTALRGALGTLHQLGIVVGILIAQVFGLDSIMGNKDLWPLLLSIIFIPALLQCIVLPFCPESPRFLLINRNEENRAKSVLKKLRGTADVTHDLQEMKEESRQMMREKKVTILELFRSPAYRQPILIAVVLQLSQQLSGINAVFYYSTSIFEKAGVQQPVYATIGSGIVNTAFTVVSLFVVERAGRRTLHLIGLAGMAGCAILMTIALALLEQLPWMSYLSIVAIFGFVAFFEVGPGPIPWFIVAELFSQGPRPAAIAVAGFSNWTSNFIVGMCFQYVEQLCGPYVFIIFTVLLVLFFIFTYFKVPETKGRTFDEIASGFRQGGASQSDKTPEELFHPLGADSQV
Assay type: cell-based
Text: (§1) Indirect Measurement of GLUT Activity by Quantification of Intracellular ATP Levels
(§2) It is well known that a combination of small-molecule inhibitors of mitochondrial electron transport chain and glucose catabolism synergistically suppress ATP production and impair cellular viability (Ulanovskaya et al., 2008, 2011; Liu, et al. 2001). We therefore used DLD1 or CHO-K1 cells in combination with an oxidative phosphorylation inhibitor to identify GLUT inhibitors. Cell lines were maintained in DMEM medium supplemented with 10% FCS and 1% Penicillin-Streptomycin solution and 2% Glutamax. The cells were treated with trypsin and seeded into 384 plates at a density of 4000 cells/well. The cells were then cultured overnight in glucose free media containing 1% FCS to reduce intracellular ATP levels. After 24 h the cells were incubated at 37° C. containing the appropriate glucose or in case of GLUT2 fructose concentration (1 mM and 30 mM respectively) with or without compounds and 1 uM Rotenone for 15 min. The CellTiter-Glo® Luminescent Cell Viability Assay from Promega was then used to measure ATP levels. Compounds able to reduce the ATP levels within 15 min of glucose application were considered to be glucose uptake inhibitors.

IC50 [nM]	SMILES
9.4	Cc1ccc2nc(C)cc(C(=O)Nc3cnn(Cc4ccc(F)cc4)c3C)c2c1 [Example 1, N-[1-(4-fluorobenzyl)-5-methyl-1H-pyrazol-4-yl]-2,6-dimethylquinoline-4-carboxamide]
91	Cc1c(NC(=O)c2cc(C3CC3)nc3ccc(F)cc23)cnn1Cc1ccc(F)cc1 [Example 6, 2-cyclopropyl-6-fluoro-N-[1-(4-fluorobenzyl)-5-methyl-1H-pyrazol-4-yl]quinoline-4-carboxamide]
185	Cc1c(NC(=O)c2cc(C(F)(F)F)nc3c(Cl)cc(Cl)cc23)cnn1Cc1ccc(F)cc1 [Example 7, 6,8-dichloro-N-[1-(4-fluorobenzyl)-5-methyl-1H-pyrazol-4-yl]-2-(trifluoromethyl)quinoline-4-carboxamide]
87	COc1cc(C(=O)Nc2cnn(Cc3ccc(C#N)cc3)c2C)c2ccccc2n1 [Example 10, N-[1-(4-cyanobenzyl)-5-methyl-1H-pyrazol-4-yl]-2-methoxyquinoline-4-carboxamide]
12	Cc1c(NC(=O)c2cc(C(F)(F)F)nc3ccc(Br)cc23)cnn1Cc1ccc(C#N)cc1 [Example 8, 6-bromo-N-[1-(4-cyanobenzyl)-5-methyl-1H-pyrazol-4-yl]-2-(trifluoromethyl)quinoline-4-carboxamide]
152	COc1cc(C(=O)Nc2cnn(Cc3ccc(F)cc3)c2C)c2ccccc2n1 [Example 3, N-[1-(4-fluorobenzyl)-5-methyl-1H-pyrazol-4-yl]-2-methoxyquinoline-4-carboxamide]
1920	CCc1noc(Cn2ncc(NC(=O)c3cc(C(N)=O)nc4ccccc34)c2C)n1 [Example 37, N^4-{1-[(3-ethyl-1,2,4-oxadiazol-5-yl)methyl]-5-methyl-1H-pyrazol-4-yl}quinoline-2,4-dicarboxamide]
7.1	Cc1c(NC(=O)c2cc(C(N)=O)nc3cc(F)ccc23)cnn1Cc1ccc(C#N)cc1 [Example 24, N^4-[1-(4-cyanobenzyl)-5-methyl-1H-pyrazol-4-yl]-7-fluoroquinoline-2,4-dicarboxamide]
1200	CCc1noc(Cn2ncc(NC(=O)c3cc(C(F)(F)F)nc4ccc(Br)cc34)c2C)n1 [Example 35, 6-bromo-N-{1-[(3-ethyl-1,2,4-oxadiazol-5-yl)methyl]-5-methyl-1H-pyrazol-4-yl}-2-(trifluoromethyl)quinoline-4-carboxamide]
531	Cc1c(NC(=O)c2cc(C(F)(F)F)nc3ccc(Br)cc23)cnn1Cc1ccn(C)n1 [Example 44, 6-bromo-N-{5-methyl-1-[(1-methyl-1H-pyrazol-3-yl)methyl]-1H-pyrazol-4-yl}-2-(trifluoromethyl)quinoline-4-carboxamide]
456	CNC(=O)c1nc(Cn2ncc(NC(=O)c3cc(C(F)(F)F)nc4ccc(Br)cc34)c2C)no1 [Example 40, 6-bromo-N-(5-methyl-1-{[5-(methylcarbamoyl)-1,2,4-oxadiazol-3-yl]methyl}-1H-pyrazol-4-yl)-2-(trifluoromethyl)quinoline-4-carboxamide]
10200	O=C(Nc1cnn(Cc2ccc(F)cc2)c1C(=O)O)c1cc(C(F)(F)F)nc2ccc(Br)cc12 [Example 17, 4-({[6-bromo-2-(trifluoromethyl)quinolin-4-yl]carbonyl}amino)-1-(4-fluorobenzyl)-1H-pyrazole-5-carboxylic acid]
52	Cc1c(NC(=O)c2cc(C(N)=O)nc3ccccc23)cnn1Cc1cccc(F)c1 [Example 27, N^4-[1-(3-fluorobenzyl)-5-methyl-1H-pyrazol-4-yl]quinoline-2,4-dicarboxamide]
222	Cc1cc(Cn2ncc(NC(=O)c3cc(C(N)=O)nc4ccccc34)c2C)no1 [Example 45, N^4-{5-methyl-1-[(5-methyl-1,2-oxazol-3-yl)methyl]-1H-pyrazol-4-yl}quinoline-2,4-dicarboxamide]
1130	Cc1cc(Cn2ncc(NC(=O)c3cc(C(F)(F)F)nc4ccc(Br)cc34)c2C)no1 [Example 42, 6-bromo-N-{5-methyl-1-[(5-methyl-1,2-oxazol-3-yl)methyl]-1H-pyrazol-4-yl}-2-(trifluoromethyl)quinoline-4-carboxamide]
3960	CNC(=O)c1c(NC(=O)c2cc(C(F)(F)F)nc3ccc(Br)cc23)cnn1Cc1ccc(C#N)cc1 [Example 21, 6-bromo-N-[1-(4-cyanobenzyl)-5-(methylcarbamoyl)-1H-pyrazol-4-yl]-2-(trifluoromethyl)quinoline-4-carboxamide]
19	COc1ccc(Cn2ncc(NC(=O)c3cc(OC)nc4ccccc34)c2C)cc1 [Example 11, 2-methoxy-N-[1-(4-methoxybenzyl)-5-methyl-1H-pyrazol-4-yl]quinoline-4-carboxamide]

What follows are molecules tested against T2, GLUT2 (Homo sapiens, UniProt P11168) (assay: Indirect measurement of GLUT activity by quantification of intracellular ATP levels: fructose induced ATP increase (GLUT2 inhibition)). Settings: 30 mM fructose, 1 uM Rotenone, 15 min; CellTiter-Glo ATP levels; DLD1 or CHO-K1 cells; read-out: IC50 regarding fructose induced ATP increase (GLUT2 inhibition).
T2 construct: host or cells: DLD1 or CHO-K1
T2 sequence (P11168 1-524): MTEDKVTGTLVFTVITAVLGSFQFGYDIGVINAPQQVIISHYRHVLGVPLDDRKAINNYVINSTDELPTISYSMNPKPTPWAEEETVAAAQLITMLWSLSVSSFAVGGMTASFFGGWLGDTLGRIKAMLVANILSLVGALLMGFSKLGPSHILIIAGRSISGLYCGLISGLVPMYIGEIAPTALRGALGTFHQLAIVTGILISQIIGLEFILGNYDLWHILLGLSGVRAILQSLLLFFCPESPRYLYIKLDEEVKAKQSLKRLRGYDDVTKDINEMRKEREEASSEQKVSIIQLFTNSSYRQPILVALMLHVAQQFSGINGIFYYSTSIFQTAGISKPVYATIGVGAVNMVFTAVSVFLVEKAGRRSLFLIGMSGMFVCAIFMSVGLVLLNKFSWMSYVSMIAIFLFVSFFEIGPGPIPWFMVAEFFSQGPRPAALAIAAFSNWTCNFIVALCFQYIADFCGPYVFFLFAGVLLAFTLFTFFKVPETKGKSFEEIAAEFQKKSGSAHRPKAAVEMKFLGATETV
Assay type: cell-based
Text: as §1, §2

IC50 [nM]	SMILES
5990	Cc1ccc2nc(C)cc(C(=O)Nc3cnn(Cc4ccc(F)cc4)c3C)c2c1 [Example 1, N-[1-(4-fluorobenzyl)-5-methyl-1H-pyrazol-4-yl]-2,6-dimethylquinoline-4-carboxamide]
1650	COc1cc(C(=O)Nc2cnn(Cc3ccc(C#N)cc3)c2C)c2ccccc2n1 [Example 10, N-[1-(4-cyanobenzyl)-5-methyl-1H-pyrazol-4-yl]-2-methoxyquinoline-4-carboxamide]
